Measured values reported in US7601838B2, “2-Alkyl/aryl sulphonyl-1,2,3,4-tetrahydro-9H-pyrido (3,4-b) indole-3-carboxylic acid esters/amides useful as antithrombotic agents” (Council of Scientific and Industrial Research, priority 2004, dated 2009).

How the values were obtained:
mouse-tail Bleeding time = assay: Effect on mouse-tail bleeding time; conditions: mice
Procedure: The tail 2 mm from tip was incised and the blood oozed was soaked with filter paper till the bleeding stops. The time elapsed from the tip incision to the stoppage of bleeding was determined as the bleeding time. Test compound (30 μM/kg), aspirin or vehicle was given orally 60 min prior to the tail incision. Each group consisted of 5 mice.

[1] = test system: collagen and epinephrine induced thrombosis in mice; assay: Effect on mouse thrombosis: collagen and adrenaline induced pulmonary thromboembolism; format: in vivo; conditions: for protection against collagen and epinephrine induced thrombosis (in words): 30 μM/kg
Procedure: Pulmonary thromboembolism was induced by following a method of Diminno and Silver^(1). Test compounds (30 μM/Kg) or vehicle were administered orally 60 min prior to the thrombotic challenge. A mixture of collagen (150 μg/ml) and adrenaline (50 μg/mL) was administered by the rapid intravenous injection into the tail vein to induce hind limb paralysis or death. A group of 10 animals were used to evaluate the effect of test compound, while 5 mice were used to assess effect of a standard drug, aspirin and a group of vehicle treated (n=5) mice was also used each experiment.
% Protection was expressed as: […]
Ptest is the number of animals paralyzed/dead in the test compound-treated group, and Pcontrol is the number of animals paralyzed/dead in vehicle treated group.

[2] = test system: stasis induced thrombosis in LPS treated rabbits; assay: Rabbit venous thrombosis model (stasis induced thrombosis in LPS treated rabbits); format: in vivo, New Zealand white strain rabbits
Procedure: (§1) [formula] 1.4 Evaluation of coagulation parameters: Blood was collected by cardiac puncture from ether-anaesthetized rat using a syringe containing 3.2% tri-sodium citrate (9:1, v/v). Plasma was obtained by centrifugation of citrated blood at 2500×g for 15 min at 20° C. Stock solutions of the test compounds were prepared freshly in DMSO and were diluted in DMSO. Thrombin time (TT), prothrombin time (PT) and activated partial thromboplastin time (aPTT) were evaluated according to manufacturer's instructions supplied with kits (Stago, France) and measured by Coagulometer (Stago, France)^(4). In each set of experiment effect of DMSO on these parameters was also assessed and was used to calculate change in TT, PT or aPTT. 1.5 Rabbit venous thrombosis model: Experiments were performed on New Zealand white strain rabbits (2-3 kg) either sex. Escherichia coli LPS strain 1055:B5 (Sigma Chemicals, USA) was injected intravenously via ear vein (1 μg/kg)^(5,6). Jugular veins on both sides were exposed and dissected free from surrounding tissue. Two loose surer were placed 1.5 cm apart and all collateral veins were ligated. Four hours after E. coli endotoxin injection (animal is watched for any signs of hypersensitivity reaction during this period), stasis was established and maintained for 45 min by tightening the two sutures. Ligated segments were removed and opened longitudinally and the thrombus was carefully removed and weighed. Heparin sodium (Beparine from beef intestinal mucosa ≧140 USP units/mg; Biological E. Limited, India) was given in doses of (0.5, 0.25, 0.1 mg/kg i.v., via ear vein) 5 min before stasis. 1.6 Effect of compound (i) on human platelet aggregation in vitro: Platelet aggregation study was done on human platelets following isolation of PRP from the human blood as described above (1.3). Aggregation was induced by collagen (10 μg/ml, 5 μg/ml), ADP (10 μM) and thrombin (0.5 U/ml). 2. Results: Effect of test compounds is indicated in the following table (1) against collagen and epinephrine induced thrombosis in mice, which is a primary screening model to detect antithrombotic efficacy of the test agents. At the same dose these compounds were also evaluated for their effect on the bleeding time in mouse (Table 1).
(§2) Effect on venous thrombosis model in rabbit: The selected compounds were evaluated at 10 μM/Kg and 30 μM/kg dose for their efficacy against stasis induced thrombosis in LPS treated rabbits. […] Ex vivo effect of selective compounds on rat platelet aggregation: Blood was collected in sodium citrate to obtain PRP and evaluate the ex vivo effect of selective compounds ((i), (ii), (iii) at 30 μM/kg administered by the ip route) against ADP, collagen, phorbol myristate ester (PMA) calcium ionophore (A23187), or thrombin induced aggregation. It was observed that all these compounds were consistent against collagen-induced platelet aggregation (Table 3). (iii) inhibited ADP (10 μM), collagen (10 μg/ml), PMA (1.5 μM), and thrombin (0.64 U/ml) induced platelet aggregation while no inhibition was found against calcium ionophore A23187 (2.5 μg/ml) induced platelet aggregation. […] Effect on clotting parameters: The selected compounds were also tested in vitro for their effect on thrombin time (TT), prothrombin time (PT) and activated partial thromboplastin time (aPTT) at 100 μg/ml and 200 μg/ml in vitro (Table 4). The test compounds at 100 μg/ml had no significant effect of on these parameters. Some effect was though seen on PT at 200 μg/ml concentration, but the concentration seems to be quite high.
Values are Mean±; Compound (i); n=2, Compound (ii); n=4, Compound (iii), n=4 [n is no. of observations in 2 or more animals at 10 μM/Kg or 30 μM/Kg p.o. administered 2 h prior to the stasis] or vehicle control [n=10 observations in five animals]. In heparin treated group n=6 observations for each dose in nine animals.

rat platelet aggregation = assay: Ex vivo effect on rat platelet aggregation (PRP, aggregometer); format: cell-based, Sprague Dawley rats; conditions: 30 μM/kg ip; for % Aggregation / % Inhibition: rat PRP; for inhibition of calcium ionophore A23187 induced platelet aggregation (in words): A23187 (2.5 μg/ml); for inhibition of calcium ionophore A23187 induced platelet aggregation (in words) / inhibition of ADP induced platelet aggregation (in words) / inhibition of PMA induced platelet aggregation (in words) / inhibition of collagen induced platelet aggregation (in words) / inhibition of thrombin induced platelet aggregation (in words): rat; for inhibition of ADP induced platelet aggregation (in words): ADP (10 μM); for inhibition of PMA induced platelet aggregation (in words): PMA (1.5 μM); for inhibition of collagen induced platelet aggregation (in words): collagen (10 μg/ml); for inhibition of thrombin induced platelet aggregation (in words): thrombin (0.64 U/ml)
Procedure: Sodium citrate: The blood was centrifuged at 275×g for 20 min and the platelet rich plasma (PRP) was collect. The remaining blood was further centrifuged at 1500 g for 15 min at 20° C. to obtain platelet poor plasma (PPP). The platelet count in the PRP was adjusted to 2×10^8 cells/ml by using PPP. Adenosine-5′-diphosphate (ADP), thrombin, collagen, calcium ionophore A23187 or phorbol myristate ester (PMA) induced aggregation was monitored on a dual channel aggregometer (Chrono-log, USA). The test compound was incubated with PRP or 5 min before the addition of aggregation on inducing agent. Percent inhibition of the test compounds at various concentrations was calculated as follows: […]
as §2

[3] = test system: thrombin time (TT), prothrombin time (PT) and activated partial thromboplastin time (aPTT); assay: Evaluation of coagulation parameters (TT, PT, aPTT) in rat plasma in vitro; format: biochemical
Procedure: as §1, §2

[4] = 30 μM/kg orally 60 min prior to collagen + adrenaline challenge
[5] = 10 μM/Kg dose p.o. 2 h prior to the stasis
[6] = 30 μM/Kg dose p.o. 2 h prior to the stasis

Structure (SMILES)	Antithrombotic activity (AT) (% protection) [1, 4]	% Reduction (thrombus wt.) [2, 6]	Thrombus wt. [2, 6]	% Aggregation (rat platelet aggregation; A23187 (2.5 μg/ml) induced)	% Inhibition (rat platelet aggregation; A23187 (2.5 μg/ml) induced)	inhibition of calcium ionophore A23187 induced platelet aggregation (in words) (rat platelet aggregation)	% Aggregation (rat platelet aggregation; ADP (10 μM) induced)	% Inhibition (rat platelet aggregation; ADP (10 μM) induced)	inhibition of ADP induced platelet aggregation (in words) (rat platelet aggregation)	% Aggregation (rat platelet aggregation; Collagen (10 μg/ml) induced)	% Inhibition (rat platelet aggregation; Collagen (10 μg/ml) induced)	% Aggregation (rat platelet aggregation; PMA (1.5 μM) induced)	% Inhibition (rat platelet aggregation; PMA (1.5 μM) induced)	inhibition of PMA induced platelet aggregation (in words) (rat platelet aggregation)	% Aggregation (rat platelet aggregation; Thrombin (0.64 U/ml) induced)	% Inhibition (rat platelet aggregation; Thrombin (0.64 U/ml) induced)	inhibition of collagen induced platelet aggregation (in words) (rat platelet aggregation)	inhibition of thrombin induced platelet aggregation (in words) (rat platelet aggregation)	Activated partial thromboplastin time (aPTT) % Change ([3]; 100 μg/ml in vitro)	Prothrombin time (PT) % Change ([3]; 100 μg/ml in vitro)	also measured
COC(=O)C1Cc2c([nH]c3ccccc23)CN1S(=O)(=O)c1ccccc1C(F)(F)F (racemic) [j, 2[2-trifluoromethylbenzenesulfonyl]-1,2,3,4,-tetrahydro-9H-pyrido[3,4-b]in-dole-3-carboxylic acid ester]	56%	–	–	–	–	–	–	–	–	–	–	–	–	–	–	–	–	–	–	–	Bleeding time (BT) % increase (1 hr) (mouse-tail Bleeding time; 30 μM/kg orally 60 min prior to tail incision): 150%
COc1ccc(S(=O)(=O)N2Cc3[nH]c4ccccc4c3CC2C(N)=O)cc1 (centres unmarked) [Compound (ii), 2[-4-methoxybenzenesulfonyl]-1,2,3,4,-tetrahydro-9H-pyrido[3,4-b]indole-3-carboxylic acid amide]	70 ± 10 (n = 3) %	88%	5 ± 4	51 ± 5%	54 ± 4%	inhibited	35 ± 5%	26 ± 10%	inhibited	5 ± 1%	79 ± 7%	44 ± 12%	26 ± 0.3%	inhibited	44 ± 10%	4 ± 10%	inhibited	did not inhibit	13 ± 7%	9 ± 5%	% Reduction (thrombus wt.) [2, 5]: −67%; Thrombus wt. [2, 5]: 79 ± 9; Thrombin time (TT) % Change ([3]; 100 μg/ml in vitro): 9 ± 5%; Activated partial thromboplastin time (aPTT) % Change ([3]; 200 μg/ml in vitro): 11 ± 4%; Prothrombin time (PT) % Change ([3]; 200 μg/ml in vitro): 14 ± 7%; Thrombin time (TT) % Change ([3]; 200 μg/ml in vitro): 9 ± 4%; protection against collagen and epinephrine induced thrombosis (in words) [1]: exhibited significant protection
CC(=O)Oc1ccccc1C(=O)O [Aspirin, reference compound]	–	–	–	–	–	–	–	–	–	–	–	–	–	–	–	–	–	–	–	–	Bleeding time (BT) % increase (1 hr) (mouse-tail Bleeding time; 30 mg/Kg (aspirin)): 125 ± 6 (n = 30) %; Antithrombotic activity (AT) (% protection) ([1]; 30 mg/Kg (aspirin, standard drug)): 38 ± 3 (n = 24) %
NC(=O)C1Cc2c([nH]c3ccccc23)CN1S(=O)(=O)c1ccc2ccccc2c1 (centres unmarked) [Compound (iii), 2-[2-naphthalenesulfonyl]-1,2,3,4,-tetrahydro-9H-pyrido[3,4-b]indole-3-carboxylic acid amide]	70 ± 0 (n = 3) %	57%	11 ± 5	57 ± 6%	−25 ± 2%	no inhibition	2 ± 0.4%	94 ± 0.2%	inhibited	2.5 ± 0%	47 ± 13%	38 ± 13%	32 ± 5%	inhibited	28 ± 3%	40 ± 6%	inhibited	inhibited	11 ± 4%	−0.24 ± 0.8%	Thrombin time (TT) % Change ([3]; 100 μg/ml in vitro): 10 ± 4%; Activated partial thromboplastin time (aPTT) % Change ([3]; 200 μg/ml in vitro): 10 ± 8%; Prothrombin time (PT) % Change ([3]; 200 μg/ml in vitro): 9 ± 0.2%; Thrombin time (TT) % Change ([3]; 200 μg/ml in vitro): 6 ± 1%; protection against collagen and epinephrine induced thrombosis (in words) [1]: exhibited significant protection
